From publication PMC9578396, “Intrinsic Antibacterial Activity of Xeruborbactam In Vitro: Assessing Spectrum and Mode of Action” (Antimicrobial Agents and Chemotherapy, 2022)
Read-outs that look alike come from different tables or passages of the source.

How the values were obtained:
Assay type in all cases: cell-based
Pseudomonas aeruginosa = assay: Broth microdilution MIC (CLSI), Pseudomonas aeruginosa
Excerpt: (§1) (i) Panels of engineered bacterial strains containing various combinations of porin and efflux mutations were used. The construction of all the strains used in the study is described in detail in references, [44], and [45]. (ii) KPC-producing clinical isolates and their derivatives that lost KPC plasmids were used also. These strains and their origins are described in the Table S2. (iii) Finally, KPC-producing clinical isolates enriched in strains with porin mutations were used. The mutations identified include various deletions, insertions, nonsense mutations, and decreased expression. Most of the isolates were obtained from JMI Laboratories or International Health Management Associates (IHMA); they were collected in the course of global surveillance studies.
(§2) Bacterial isolates were subjected to broth microdilution susceptibility testing, performed according to Clinical and Laboratory Standards Institute (CLSI) methods ([46]), using panels prepared in-house. […] Xeruborbactam was synthesized at Qpex Biopharma, San Diego, CA. Avibactam was purchased from eNovation Chemicals LLC, Bridgewater, NJ, USA; zidebactam was from MedKoo Biosciences, Inc., Morrisville, NC, and nacubactam was from Advanced ChemBlocks, Hayward, CA. Durlobactam was synthesized at Acme Bioscience, Palo Alto, CA, USA.

Acinetobacter baumannii = assay: Broth microdilution MIC (CLSI), Acinetobacter baumannii; details: Acinetobacter baumannii, read-out: MIC
Excerpt: as §1, §2

Klebsiella pneumoniae = assay: microbe, parasite or virus in culture; details: for MIC90: read-out: MIC90
Excerpt: as §1, §2

[1] = PAM1154 (oprM::Hg), xeruborbactam 0 µg/ml
[2] = Klebsiella pneumoniae, KPC-producing clinical strains with functional OmpK36, alone
[3] = Klebsiella pneumoniae, KPC-producing clinical strains with nonfunctional OmpK36, alone
[4] = Klebsiella pneumoniae, KPC-producing clinical strains, all strains (n = 141), alone

**Q.** Which MIC (Pseudomonas aeruginosa; [1]) does the source give for CCN1CCN(C(=O)N[C@@H](C(=O)N[C@@H]2C(=O)N3[C@@H]2SC(C)(C)[C@@H]3C(=O)O)c2ccccc2)C(=O)C1=O [Piperacillin] here?
**A.** Its MIC is 0.5 µg/mL.

**Q.** What about the MIC (Pseudomonas aeruginosa; PAM1154, xeruborbactam 2 µg/ml) of the same compound?
**A.** The MIC was 0.125 µg/mL.

**Q.** What about the MIC (Pseudomonas aeruginosa; PAM1154, xeruborbactam 4 µg/ml) of the same compound?
**A.** Its MIC is 0.125 µg/mL.

**Q.** What about the MIC (Pseudomonas aeruginosa; PAM1154, xeruborbactam 8 µg/ml) of the same compound?
**A.** The MIC was 0.06 µg/mL.

**Q.** Which MIC (Acinetobacter baumannii; AB1007 (no beta-lactamase), xeruborbactam 0 µg/ml) does the source give for CC1(C)[C@H](C(=O)O)N2C(=O)C[C@H]2S1(=O)=O [Sulbactam] here?
**A.** The MIC was 2 µg/mL.

**Q.** What about the MIC (Acinetobacter baumannii; AB1007, xeruborbactam 2 µg/ml) of the same compound?
**A.** The MIC was 2 µg/mL.

**Q.** And the MIC (Acinetobacter baumannii; AB1007, xeruborbactam 4 µg/ml)?
**A.** The MIC was 2 µg/mL.

**Q.** What about the MIC (Acinetobacter baumannii; AB1007, xeruborbactam 8 µg/ml) of the same compound?
**A.** Its MIC is 0.25 µg/mL.

**Q.** With C[C@@H](O)[C@H]1C(=O)N2C(C(=O)O)=C(SC3CN(C4=NCCS4)C3)[C@H](C)[C@H]12 [Tebipenem] as the compound, how does the MIC (Klebsiella pneumoniae; KPM1026a (no beta-lactamase), xeruborbactam 0 µg/ml) read?
**A.** Its MIC is 0.03 µg/mL.

**Q.** What about the MIC (Klebsiella pneumoniae; KPM1026a, xeruborbactam 2 µg/ml) of the same compound?
**A.** The MIC was 0.03 µg/mL.

**Q.** And the MIC (Klebsiella pneumoniae; KPM1026a, xeruborbactam 4 µg/ml)?
**A.** Its MIC is 0.016 µg/mL.

**Q.** And the MIC (Klebsiella pneumoniae; KPM1026a, xeruborbactam 8 µg/ml)?
**A.** The MIC was 0.004 µg/mL.

**Q.** How did the “effect on beta-lactam MIC” value (Klebsiella pneumoniae; KPM1026a, vaborbactam up to 64 μg/mL, data not shown) turn out when O=C(O)C[C@@H]1CC[C@H](NC(=O)Cc2cccs2)B(O)O1 [Vaborbactam] was run?
**A.** The value was “no reduction”.

**Q.** And the MIC50 (Klebsiella pneumoniae; [2])?
**A.** The MIC50 was over 64 µg/mL.

**Q.** What about the MIC90 (Klebsiella pneumoniae; [2]) of the same compound?
**A.** Its MIC90 is over 64 µg/mL.

**Q.** What about the MIC50 (Klebsiella pneumoniae; [3]) of the same compound?
**A.** The MIC50 was over 64 µg/mL.

**Q.** And the MIC90 (Klebsiella pneumoniae; [3])?
**A.** Its MIC90 is over 64 µg/mL.

**Q.** And the MIC50 (Klebsiella pneumoniae; [4])?
**A.** The MIC50 was over 64 µg/mL.

**Q.** And the MIC90 (Klebsiella pneumoniae; [4])?
**A.** The MIC90 was over 64 µg/mL.

**Q.** What about the MIC (Klebsiella pneumoniae; Klebsiella pneumoniae, KPM1271 (KPC-3; wild type), alone, read-out: MIC) of the same compound?
**A.** Its MIC is over 128 µg/mL.

**Q.** What about the MIC (Klebsiella pneumoniae; Klebsiella pneumoniae, KPM1272 (KPC-3; ramR_fs), alone, read-out: MIC) of the same compound?
**A.** Its MIC is over 128 µg/mL.

**Q.** What about the MIC (Klebsiella pneumoniae; Klebsiella pneumoniae, KPM1273 (KPC-3; ramR_fs ompK36_1171), alone, read-out: MIC) of the same compound?
**A.** The MIC was over 128 µg/mL.

**Q.** And the MIC (Klebsiella pneumoniae; Klebsiella pneumoniae, KPM2067 (KPC-3; ompK36_fs), alone, read-out: MIC)?
**A.** Its MIC is over 128 µg/mL.

**Q.** What about the MIC (Klebsiella pneumoniae; Klebsiella pneumoniae, KPM2601 (KPC-3; ΔompK35), alone) of the same compound?
**A.** Its MIC is over 128 µg/mL.

**Q.** What about the MIC (Klebsiella pneumoniae; Klebsiella pneumoniae, KPM2631 (KPC-3; ompK36_fs ΔompK35), alone) of the same compound?
**A.** Its MIC is over 128 µg/mL.

**Q.** What does the source list for Cn1c(N)c(NC(=O)NCCN)c[n+]1CC1=C(C(=O)O)N2C(=O)[C@@H](NC(=O)/C(=N\OC(C)(C)C(=O)[O-])c3nsc(N)n3)[C@H]2SC1 [ceftolozane]?
**A.** MIC (Pseudomonas aeruginosa; [1]): 0.5 µg/mL; MIC (Pseudomonas aeruginosa; PAM1154, xeruborbactam 2 µg/ml): 0.25 µg/mL; MIC (Pseudomonas aeruginosa; PAM1154, xeruborbactam 4 µg/ml): 0.25 µg/mL; MIC (Pseudomonas aeruginosa; PAM1154, xeruborbactam 8 µg/ml): 0.125 µg/mL

**Q.** How did the MIC (Klebsiella pneumoniae; Klebsiella pneumoniae) turn out when CC1=C(C(=O)O)N2C(=O)[C@@H](NC(=O)[C@H](N)c3ccccc3)[C@H]2SC1 [cephalexin] was run?
**A.** The MIC was 128 µg/mL.
